Experimental data from US20250145665A1, “MACROCYCLIC PEPTIDES USEFUL AS MODULATORS OF TNF ALPHA” (Bristol-Myers Squibb Company, priority 2023, published 2025).
pIC50: −log10 of the molar value. Where two headings read alike, the source gives them in different places. Starred links: 1 amine or outer side, 2 acyl side, 3 side chain; linkers in the order of their positions; H or OH if unused. Positions of bridges follow the written chain, without caps; N, C: chain ends. Non-standard residues stand in square brackets, D forms with d. Residues, ends and D or L forms follow the SMILES beside them. *: point of attachment. Bip(4'-NH) = O=C([C@H](Cc1ccc(-c2ccc(N[*:3])cc2)cc1)N[*:1])[*:2]; Indazole3carbonyl(1-CH2COOH) = O=C(O)Cn1nc(C(=O)*)c2ccccc21; Bip(4'-NHAc) = CC(=O)Nc1ccc(-c2ccc(C[C@H](N)C(=O)O)cc2)cc1; X55 = N=C(NCCC[C@@H](N[*:1])C(=O)[*:2])NCCc1cccnc1; Ala(morpholin-4-yl) = N[C@@H](CN1CCOCC1)C(=O)O; Phe(3-CONH2) = NC(=O)c1cccc(C[C@H](N)C(=O)O)c1; Bip = N[C@@H](Cc1ccc(-c2ccccc2)cc1)C(=O)O; 2Pal = N[C@@H](Cc1ccccn1)C(=O)O; Tle = CC(C)(C)[C@H](N)C(=O)O; Sar = CNCC(=O)O

Target: TNFα (Homo sapiens, UniProt P01375)
Sequence (P01375 77-233 limits assumed): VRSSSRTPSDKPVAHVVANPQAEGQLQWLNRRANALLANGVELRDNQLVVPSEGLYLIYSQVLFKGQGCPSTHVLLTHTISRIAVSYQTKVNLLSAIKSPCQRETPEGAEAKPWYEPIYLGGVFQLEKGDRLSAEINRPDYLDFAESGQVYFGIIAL
Test: TNF-Induced HEK-Blue Assay
Type: cell-based

Row | pIC50 (HEK-Blue-CD40L cells, NF-kB-driven secreted alkaline phosphatase reporter, TNFα 0.5 ng/ml, 18 h, read-out: TNF induced HEK-Blue assay IC50 value) | Compound | pIC50
1 | 6.70 to 7.30 | CC[C@H](C)[C@@H]1NC(=O)[C@@H](CCCNC(=N)N)NC(=O)[C@H](CC(=O)O)NC(=O)[C@H](Cc2ccccn2)NC(=O)CN(C)C(=O)[C@H](Cc2ccc(-c3ccc(NC(C)=O)cc3)cc2)NC(=O)[C@H](Cc2ccc(-c3ccccc3)cc2)NC(=O)[C@H](C(C)(C)C)NC(=O)CSC[C@@H](C(=O)NCC(N)=O)NC(=O)[C@H](CC(C)C)NC(=O)[C@H](Cc2cccc(C(N)=O)c2)NC(=O)[C@H](C(C)C)NC(=O)[C@@H]2CCCN2C1=O [Example 262] ({CH2CO}-[Tle][Bip][Bip(4'-NHAc)][Sar][2Pal]D[dR]IPV[Phe(3-CONH2)]LCG-NH2; thioether N-13) | 
2 |  | CC(C)C[C@@H]1NC(=O)[C@H](CCCNC(=N)N)NC(=O)[C@H](C(C)C)NC(=O)[C@@H]2CCCN2C(=O)[C@H](C(C)C)NC(=O)[C@@H](CCCNC(=N)NCCc2cccnc2)NC(=O)[C@H](CC(=O)O)NC(=O)[C@@H]2CCCN2C(=O)CN(C)C(=O)[C@H](Cc2ccc(-c3ccc(NC(=O)c4nn(CC(=O)O)c5ccccc45)cc3)cc2)NC(=O)[C@H](Cc2ccc(-c3ccccc3)cc2)NC(=O)[C@H](CN2CCOCC2)NC(=O)CSC[C@@H](C(=O)NCC(N)=O)NC1=O [Example 434] ({CH2CO}-[Ala(morpholin-4-yl)][Bip][Bip(4'-NH)](Indazole3carbonyl(1-CH2COOH))[Sar]PD[X55]VPVRLCG-NH2; thioether N-13) | 6.70 to 7.30
